A short description of series [1]: Cytotoxicity against rat RT2 cells expressing wild type p53 after 48 hrs by MTT assay. In kind it is functional, cell-based. The following applies: RT2, 48 h. Background: Tetrazolium assays rely on reduction of a dye to a coloured formazan, in cell work by metabolically active cells.
Series [2] is described as follows: Cytotoxicity against erythrocytes assessed as hemolysis. In kind it is cell-based. The following applies: erythrocyte.
A short description of series [3]: Cytotoxicity against human T98 cells expressing p53 mutant after 48 hrs by MTT assay. In kind it is functional, cell-based. Particulars: T98, 48 h.

Structures are written as SMILES.

Consider `C/C(=N\NC(=S)Nc1ccc(Cl)cc1)c1ccccn1`, for which the IC50 (usually the concentration that inhibits the measured activity by half) in series [1] amounted to 3.7 nM; in series [3], 5.9 nM. Further, the Hemolytic concentration in series [2] is greater than 1 mM.
As for `C/C(=N\NC(=S)Nc1ccccc1C)c1ccccn1`, the concentration for half-maximal inhibition (IC50) in series [1] is 14 nM; in series [3], 34 nM. The Hemolytic concentration in series [2] is greater than 1 mM.
The like results for `C/C(=N\NC(=S)Nc1cccc(Cl)c1)c1ccccn1` were, in that order, 9 nM, 1 nM and greater than 1 mM.
The like results for `C/C(=N\NC(=S)Nc1cccc(C)c1)c1ccccn1` were, in that order, 24 nM, 50 nM and greater than 1 mM.
`C/C(=N\NC(=S)Nc1ccccc1)c1ccccn1`: the IC50 in series [1] is 1.4 nM; in series [3], 6.8 nM. In series [2], the Hemolytic concentration was greater than 1 mM.
The like results for `C/C(=N\NC(=S)Nc1ccccc1Cl)c1ccccn1` were, in that order, 1.4 nM, 1.1 nM and greater than 1 mM.
On to `C/C(=N\NC(=S)Nc1ccc(C)cc1)c1ccccn1`, for which the IC50 came out at 17 nM in series [1] and 37 nM in series [3]. Further, the Hemolytic concentration in series [2] is greater than 1 mM.
